Assay results published in PubChem BioAssay AID1963831 (Molecular Pharmacology Branch, DTP, NCI, 2024).
Where “and” joins values, the source holds several entries; their conditions need not be identical. Equal entries are not always repeated.

Tested on: 889142-216-R-J1-PDC complex spheroid viability
Test: Anticancer human tumor 889142-216-R-J1-PDC patient-derived bladder carcinoma cell line growth inhibition [POLQ]
Settings: for viability, T/C: stronger effect = lower value
Summary of the method: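 Patient-derived tumour cells were co-cultured with HUVEC and mesenchymal stem cells as multicellular spheroids at 37 °C. They were treated with POLQ inhibitors (novobiocin, ART-558, RP6685) alone or combined with other agents. Top concentrations were at or near clinical Cmax (otherwise 10 microM; SN-38 at 1 microM), decreasing in half-log steps.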

[1] = curve of first compound, second compound 0.0316 µM
[2] = curve of first compound, second compound 0.1 µM
[3] = curve of first compound, second compound 0.316 µM
[4] = curve of first compound, second compound 1 µM
[5] = curve of first compound, second compound 3.16 µM
[6] = curve of first compound, second compound 10 µM
[7] = second compound 0.0316 µM, first compound 0.00316 µM
[8] = second compound 0.0316 µM, first compound 0.01 µM
[9] = second compound 0.0316 µM, first compound 0.0316 µM
[10] = second compound 0.0316 µM, first compound 0.1 µM
[11] = second compound 0.1 µM, first compound 0.00316 µM
[12] = second compound 0.1 µM, first compound 0.01 µM
[13] = second compound 0.1 µM, first compound 0.0316 µM
[14] = second compound 0.1 µM, first compound 0.1 µM
[15] = second compound 0.316 µM, first compound 0.00316 µM
[16] = second compound 0.316 µM, first compound 0.01 µM
[17] = second compound 0.316 µM, first compound 0.0316 µM
[18] = second compound 0.316 µM, first compound 0.1 µM
[19] = second compound 1 µM, first compound 0.00316 µM
[20] = second compound 1 µM, first compound 0.01 µM
[21] = second compound 1 µM, first compound 0.0316 µM
[22] = second compound 1 µM, first compound 0.1 µM
[23] = second compound 3.16 µM, first compound 0.00316 µM
[24] = second compound 3.16 µM, first compound 0.01 µM
[25] = second compound 3.16 µM, first compound 0.0316 µM
[26] = second compound 3.16 µM, first compound 0.1 µM
[27] = second compound 10 µM, first compound 0.00316 µM
[28] = second compound 10 µM, first compound 0.01 µM
[29] = second compound 10 µM, first compound 0.0316 µM
[30] = second compound 10 µM, first compound 0.1 µM
[31] = second compound 0.0316 µM, first compound 0.316 µM
[32] = second compound 0.0316 µM, first compound 1 µM
[33] = second compound 0.0316 µM, first compound 3.16 µM
[34] = second compound 0.0316 µM, first compound 10 µM
[35] = second compound 0.1 µM, first compound 0.316 µM
[36] = second compound 0.1 µM, first compound 1 µM
[37] = second compound 0.1 µM, first compound 3.16 µM
[38] = second compound 0.1 µM, first compound 10 µM
[39] = second compound 0.316 µM, first compound 0.316 µM
[40] = second compound 0.316 µM, first compound 1 µM
[41] = second compound 0.316 µM, first compound 3.16 µM
[42] = second compound 0.316 µM, first compound 10 µM
[43] = second compound 1 µM, first compound 0.316 µM
[44] = second compound 1 µM, first compound 1 µM
[45] = second compound 1 µM, first compound 3.16 µM
[46] = second compound 1 µM, first compound 10 µM
[47] = second compound 3.16 µM, first compound 0.316 µM
[48] = second compound 3.16 µM, first compound 1 µM
[49] = second compound 3.16 µM, first compound 3.16 µM
[50] = second compound 3.16 µM, first compound 10 µM
[51] = second compound 10 µM, first compound 0.316 µM
[52] = second compound 10 µM, first compound 1 µM
[53] = second compound 10 µM, first compound 3.16 µM
[54] = second compound 10 µM, first compound 10 µM
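Further: spheroids exposed to compounds for seven days.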
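Wherever viability, T/C is given: 100% = DMSO vehicle control viability.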

Cn1ncnc1[C@H]1c2n[nH]c(=O)c3cc(F)cc(c23)N[C@@H]1c1ccc(F)cc1 + COC1C(OC(N)=O)C(O)C(Oc2ccc3c(O)c(NC(=O)c4ccc(O)c(CC=C(C)C)c4)c(=O)oc3c2C)OC1(C)C
IC50 [1]: > 100 nM | IC50 [2]: > 100 nM | IC50 [3]: > 100 nM | IC50 [4]: > 100 nM | IC50 [5]: > 100 nM | IC50 [6]: > 100 nM | viability, T/C (second compound 0.0316 µM, first compound 0.000316 µM): 97% | viability, T/C (second compound 0.0316 µM, first compound 0.001 µM): 95% | viability, T/C [7]: 93.1% | viability, T/C [8]: 80.6% | viability, T/C [9]: 73.3% | viability, T/C [10]: 76.8% | viability, T/C (second compound 0.1 µM, first compound 0.000316 µM): 108% | viability, T/C (second compound 0.1 µM, first compound 0.001 µM): 92.7% | viability, T/C [11]: 74.2% | viability, T/C [12]: 73.7% | viability, T/C [13]: 73.4% | viability, T/C [14]: 72.5% | viability, T/C (second compound 0.316 µM, first compound 0.000316 µM): 90.8% | viability, T/C (second compound 0.316 µM, first compound 0.001 µM): 87.8% | viability, T/C [15]: 90.9% | viability, T/C [16]: 91.9% | viability, T/C [17]: 85% | viability, T/C [18]: 66.6% | viability, T/C (second compound 1 µM, first compound 0.000316 µM): 88.9% | viability, T/C (second compound 1 µM, first compound 0.001 µM): 77.4% | viability, T/C [19]: 89.2% | viability, T/C [20]: 117% | viability, T/C [21]: 85% | viability, T/C [22]: 79.6% | viability, T/C (second compound 3.16 µM, first compound 0.000316 µM): 97.9% | viability, T/C (second compound 3.16 µM, first compound 0.001 µM): 100% | viability, T/C [23]: 103% | viability, T/C [24]: 83.9% | viability, T/C [25]: 71.5% | viability, T/C [26]: 74.1% | viability, T/C (second compound 10 µM, first compound 0.000316 µM): 72.9% | viability, T/C (second compound 10 µM, first compound 0.001 µM): 115% | viability, T/C [27]: 89.8% | viability, T/C [28]: 119% | viability, T/C [29]: 80.4% | viability, T/C [30]: 59.6%

Nc1ccn(C2OC(CO)C(O)C2(F)F)c(=O)n1 (stereo not given) + Nc1ccc(C#CCN(C(=O)Cc2ncc(C(F)(F)F)cc2C(F)(F)F)c2ccc(F)cc2)nn1
IC50 [1]: 233 nM | IC50 [2]: 386 nM | IC50 [3]: 363 nM | IC50 [4]: 292 nM | IC50 [5]: 3390 nM | IC50 [6]: 5260 nM | viability, T/C [9]: 74.1% | viability, T/C [10]: 56.1% | viability, T/C [31]: 46% | viability, T/C [32]: 45.2% | viability, T/C [33]: 40.9% | viability, T/C [34]: 35.9% | viability, T/C [13]: 62.8% | viability, T/C [14]: 57.8% | viability, T/C [35]: 48.9% | viability, T/C [36]: 47.2% | viability, T/C [37]: 38.8% | viability, T/C [38]: 34.5% | viability, T/C [17]: 61.8% | viability, T/C [18]: 56.1% | viability, T/C [39]: 50.9% | viability, T/C [40]: 44% | viability, T/C [41]: 45.6% | viability, T/C [42]: 39.6% | viability, T/C [21]: 69.8% | viability, T/C [22]: 55.6% | viability, T/C [43]: 47% | viability, T/C [44]: 48.5% | viability, T/C [45]: 43.5% | viability, T/C [46]: 36.7% | viability, T/C [25]: 56.4% | viability, T/C [26]: 60.7% | viability, T/C [47]: 60% | viability, T/C [48]: 55.7% | viability, T/C [49]: 49.5% | viability, T/C [50]: 39.7% | viability, T/C [29]: 88.9% | viability, T/C [30]: 73.6% | viability, T/C [51]: 69.5% | viability, T/C [52]: 51.7% | viability, T/C [53]: 55.7% | viability, T/C [54]: 46.5%

CCc1cc2c(N3CCc4c(cc(Cn5ccnc5)cc4-c4cn(C)nc4C(F)(F)F)C3=O)cc(C)nc2c(OC)n1
viability, T/C (compound 0.0316 µM): 103% and 102% and 111% | viability, T/C (compound 0.1 µM): 116% and 114% and 108% | viability, T/C (compound 0.316 µM): 123% and 119% (2×) | viability, T/C (compound 1 µM): 132% and 112% and 96.6% | viability, T/C (compound 3.16 µM): 118% and 106% and 84.9% | viability, T/C (compound 10 µM): 84.3% and 82.2% and 71.1% | IC50 (curve of compound): > 10000 nM

CNCc1ccc(-c2[nH]c3cc(F)cc4c3c2CCNC4=O)cc1 + Cc1cccc(N(C)C(=O)C2C(O)CCN2c2nc(C)cc(C(F)(F)F)c2C#N)c1
IC50 [1]: > 10000 nM | IC50 [2]: > 10000 nM | IC50 [3]: > 10000 nM | IC50 [4]: > 10000 nM | IC50 [5]: > 10000 nM | IC50 [6]: > 10000 nM | viability, T/C [9]: 110% | viability, T/C [10]: 106% | viability, T/C [31]: 83.5% | viability, T/C [32]: 92.7% | viability, T/C [33]: 101% | viability, T/C [34]: 58.3% | viability, T/C [13]: 91.9% | viability, T/C [14]: 87% | viability, T/C [35]: 95.9% | viability, T/C [36]: 91.7% | viability, T/C [37]: 85.4% | viability, T/C [38]: 78.5% | viability, T/C [17]: 92.8% | viability, T/C [18]: 89.4% | viability, T/C [39]: 109% | viability, T/C [40]: 110% | viability, T/C [41]: 126% | viability, T/C [42]: 79.9% | viability, T/C [21]: 82.3% | viability, T/C [22]: 120% | viability, T/C [43]: 104% | viability, T/C [44]: 119% | viability, T/C [45]: 113% | viability, T/C [46]: 70.7% | viability, T/C [25]: 102% | viability, T/C [26]: 99% | viability, T/C [47]: 110% | viability, T/C [48]: 89.2% | viability, T/C [49]: 96.6% | viability, T/C [50]: 63.9% | viability, T/C [29]: 73.7% | viability, T/C [30]: 81.2% | viability, T/C [51]: 88.4% | viability, T/C [52]: 94.4% | viability, T/C [53]: 78.5% | viability, T/C [54]: 57.2%

COc1cccc(OCCCN)c1-c1cc(Nc2cnc(C#N)cn2)n[nH]1 + COC1C(OC(N)=O)C(O)C(Oc2ccc3c(O)c(NC(=O)c4ccc(O)c(CC=C(C)C)c4)c(=O)oc3c2C)OC1(C)C
IC50 [1]: 20.4 nM | IC50 [2]: 19.8 nM | IC50 [3]: 29.8 nM | IC50 [4]: 17.5 nM | IC50 [5]: 26.4 nM | IC50 [6]: 20 nM | viability, T/C [7]: 90.8% | viability, T/C [8]: 55.7% | viability, T/C [9]: 51.2% | viability, T/C [10]: 33.5% | viability, T/C [31]: 34.4% | viability, T/C [32]: 36.2% | viability, T/C [11]: 90% | viability, T/C [12]: 63.5% | viability, T/C [13]: 41.1% | viability, T/C [14]: 31.6% | viability, T/C [35]: 31.5% | viability, T/C [36]: 30.9% | viability, T/C [15]: 73.2% | viability, T/C [16]: 66.6% | viability, T/C [17]: 47.8% | viability, T/C [18]: 38.8% | viability, T/C [39]: 33.8% | viability, T/C [40]: 31.7% | viability, T/C [19]: 87% | viability, T/C [20]: 57.5% | viability, T/C [21]: 40.9% | viability, T/C [22]: 36.7% | viability, T/C [43]: 35% | viability, T/C [44]: 30% | viability, T/C [23]: 78.3% | viability, T/C [24]: 61.5% | viability, T/C [25]: 48% | viability, T/C [26]: 38.2% | viability, T/C [47]: 31.4% | viability, T/C [48]: 28.6% | viability, T/C [27]: 81.7% | viability, T/C [28]: 58.5% | viability, T/C [29]: 45.6% | viability, T/C [30]: 33.8% | viability, T/C [51]: 34.4% | viability, T/C [52]: 30.7%
